From ChEMBL document CHEMBL3217548, “Biological activity and DNA binding studies of 2-substituted benzimidazo[1,2-a]quinolines bearing different amino side chains” (Medchemcomm, 2013)
Active and inactive are the calls of the source. No cut-off for these calls is given here.

Key:
[1] = system: Calf thymus DNA; experiment: Binding affinity to calf thymus DNA assessed as DNA intercalation by circular dichroism analysis; assay type: nucleic-acid assay; conditions: Bos taurus
[2] = system: HCT-116; experiment: Cell cycle arrest in human HCT116 cells assessed as accumulation at S phase at 1 uM after 24 hrs by propidium iodide staining-based FACS analysis (reference value: 48 +/- 6 %); assay type: functional
[3] = Drug uptake in human H460 cell nucleoli at 10 uM after 2 hrs by fluorescence microscopy; assay type: ADME, cell-based; conditions: h460, 2 h
[4] = system: Calf thymus DNA; experiment: Binding affinity to calf thymus DNA assessed as hypochromic shift at 20 uM by UV/visible spectrophotometry; assay type: nucleic-acid assay; conditions: Bos taurus
[5] = system: HCT-116; experiment: Cell cycle arrest in human HCT116 cells assessed as accumulation at G2/M phase at 1 uM after 24 hrs by propidium iodide staining-based FACS analysis (reference value: 29 +/- 8 %); assay type: functional
[6] = system: Calf thymus DNA; experiment: Binding affinity to calf thymus DNA assessed as bathochromic shift at 20 uM by UV/visible spectrophotometry; assay type: nucleic-acid assay; conditions: Bos taurus
[7] = system: MCF7; experiment: Cytotoxicity against human MCF7 cells after 72 hrs by MTT assay; assay type: functional, cell-based; conditions: MCF7, 72 h
[8] = system: Escherichia coli; experiment: Binding affinity to Escherichia coli pUC19 plasmid assessed as nicked DNA at 0.1 to 5 uM by ethidium bromide staining-based agarose gel electrophoresis
[9] = system: HCT-116; experiment: Cell cycle arrest in human HCT116 cells assessed as accumulation at subG1 phase at 5 uM after 24 hrs by propidium iodide staining-based FACS analysis; assay type: functional
[10] = system: HCT-116; experiment: Cell cycle arrest in human HCT116 cells assessed as accumulation at S phase at 0.1 uM after 24 hrs by propidium iodide staining-based FACS analysis (reference value: 48 +/- 6 %); assay type: functional
[11] = species: Homo sapiens; experiment: Inhibition of human DNA topoisomerase 2 assessed as inhibition of DNA cleavage
[12] = system: HCT-116; experiment: Cell cycle arrest in human HCT116 cells assessed as accumulation at G2/M phase at 0.1 uM after 48 hrs by propidium iodide staining-based FACS analysis (reference value: 28 +/- 3 %); assay type: functional
[13] = system: DNA; experiment: Induction of DNA damage in plasmid DNA in E. coli S30 cell-free system assessed as inhibition of EGFP translation at 50 uM after 1 hr by fluorescence assay
[14] = system: HCT-116; experiment: Cell cycle arrest in human HCT116 cells assessed as accumulation at G1 phase at 1 uM after 24 hrs by propidium iodide staining-based FACS analysis (reference value: 23 +/- 2 %); assay type: functional
[15] = system: HCT-116; experiment: Cell cycle arrest in human HCT116 cells assessed as accumulation at subG1 phase at 0.1 uM after 48 hrs by propidium iodide staining-based FACS analysis (reference value: 5 +/- 2 %); assay type: functional
[16] = molecular target: T1, DNA topoisomerase 1 (Homo sapiens) (UniProt P11387); experiment: Inhibition of human DNA topoisomerase 1 assessed as inhibition of DNA cleavage
T1 sequence (whole entry): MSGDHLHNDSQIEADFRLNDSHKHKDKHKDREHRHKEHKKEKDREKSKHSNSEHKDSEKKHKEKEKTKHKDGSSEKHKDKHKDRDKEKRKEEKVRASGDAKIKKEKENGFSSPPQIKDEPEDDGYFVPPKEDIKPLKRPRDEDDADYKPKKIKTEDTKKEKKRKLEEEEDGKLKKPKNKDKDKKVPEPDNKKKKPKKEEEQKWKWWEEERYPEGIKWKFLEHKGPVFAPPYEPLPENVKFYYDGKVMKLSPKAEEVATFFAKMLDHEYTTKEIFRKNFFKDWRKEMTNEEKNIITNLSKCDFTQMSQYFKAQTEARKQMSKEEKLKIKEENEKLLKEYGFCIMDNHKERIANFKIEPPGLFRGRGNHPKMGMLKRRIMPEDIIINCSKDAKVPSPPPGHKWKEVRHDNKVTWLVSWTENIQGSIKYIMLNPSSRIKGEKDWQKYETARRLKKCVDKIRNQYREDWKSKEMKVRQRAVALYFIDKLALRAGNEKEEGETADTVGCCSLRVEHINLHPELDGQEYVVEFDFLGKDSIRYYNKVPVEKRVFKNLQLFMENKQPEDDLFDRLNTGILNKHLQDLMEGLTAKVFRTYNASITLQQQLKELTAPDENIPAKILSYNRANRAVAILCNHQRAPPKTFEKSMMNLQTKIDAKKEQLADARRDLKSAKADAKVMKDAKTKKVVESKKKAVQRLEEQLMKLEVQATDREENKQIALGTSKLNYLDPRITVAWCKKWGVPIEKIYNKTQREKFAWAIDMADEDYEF

[17] = system: HCT-116; experiment: Cell cycle arrest in human HCT116 cells assessed as accumulation at G2/M phase at 1 uM after 48 hrs by propidium iodide staining-based FACS analysis (reference value: 28 +/- 3 %); assay type: functional
[18] = system: HCT-116; experiment: Cell cycle arrest in human HCT116 cells assessed as accumulation at subG1 phase at 0.1 uM after 24 hrs by propidium iodide staining-based FACS analysis (reference value: 2 +/- 0.1 %); assay type: functional
[19] = system: HCT-116; experiment: Cell cycle arrest in human HCT116 cells assessed as accumulation at subG1 phase at 1 uM after 24 hrs by propidium iodide staining-based FACS analysis (reference value: 2 +/- 0.1 %); assay type: functional
[20] = system: Escherichia coli; experiment: Binding affinity to Escherichia coli pUC19 plasmid assessed as induction of topoisomerase1-mediated DNA relaxation at 1 uM incubated for 45 mins prior to topoisomerase1 addition by agarose gel electrophoresis
[21] = system: HCT-116; experiment: Cell cycle arrest in human HCT116 cells assessed as accumulation at G1 phase at 0.1 uM after 48 hrs by propidium iodide staining-based FACS analysis (reference value: 60 +/- 2 %); assay type: functional
[22] = Binding affinity to DNA (unknown origin) at 1 to 10 uM after 15 mins by DNA footprinting assay
[23] = system: HCT-116; experiment: Cytotoxicity against human HCT116 cells after 72 hrs by MTT assay; assay type: functional, cell-based; conditions: HCT-116, 72 h
[24] = Cytotoxicity against human H460 cells after 72 hrs by MTT assay; assay type: functional, cell-based; conditions: NCI-H460, 72 h
[25] = system: HCT-116; experiment: Cell cycle arrest in human HCT116 cells assessed as accumulation at G2/M phase at 0.1 uM after 24 hrs by propidium iodide staining-based FACS analysis (reference value: 29 +/- 8 %); assay type: functional
[26] = system: HCT-116; experiment: Cell cycle arrest in human HCT116 cells assessed as accumulation at G1 phase at 1 uM after 48 hrs by propidium iodide staining-based FACS analysis (reference value: 60 +/- 2 %); assay type: functional
[27] = Drug uptake in human H460 cell endoplasmic reticulum at 10 uM after 2 hrs by fluorescence microscopy; assay type: ADME, cell-based; conditions: h460, 2 h
[28] = system: HCT-116; experiment: Cell cycle arrest in human HCT116 cells assessed as accumulation at G1 phase at 0.1 uM after 24 hrs by propidium iodide staining-based FACS analysis (reference value: 23 +/- 2 %); assay type: functional
[29] = system: HCT-116; experiment: Cell cycle arrest in human HCT116 cells assessed as accumulation at subG1 phase after 24 hrs by propidium iodide staining-based FACS analysis; assay type: functional
[30] = system: Calf thymus DNA; experiment: Binding affinity to calf thymus DNA assessed as change in melting temperature at 0.5 drug/DNA ratio by spectrophotometry; assay type: nucleic-acid assay; conditions: Bos taurus
[31] = system: HCT-116; experiment: Cell cycle arrest in human HCT116 cells assessed as accumulation at subG1 phase at 1 uM after 48 hrs by propidium iodide staining-based FACS analysis (reference value: 5 +/- 2 %); assay type: functional
[32] = system: HCT-116; experiment: Cell cycle arrest in human HCT116 cells assessed as accumulation at S phase at 1 uM after 48 hrs by propidium iodide staining-based FACS analysis (reference value: 12+/- 5 %); assay type: functional
[33] = system: HCT-116; experiment: Cell cycle arrest in human HCT116 cells assessed as accumulation at S phase at 0.1 uM after 48 hrs by propidium iodide staining-based FACS analysis (reference value: 12+/- 5 %); assay type: functional
[34] = system: Calf thymus DNA; experiment: Binding affinity to calf thymus DNA assessed as DNA intercalation at 1 to 50 uM by circular dichroism analysis; assay type: nucleic-acid assay; conditions: Bos taurus
[35] = Drug uptake in human H460 cell nucleus at 10 uM after 2 hrs by fluorescence microscopy; assay type: ADME, cell-based; conditions: h460, 2 h
[36] = Drug uptake in human H460 cell cytoplasm at 10 uM after 2 hrs by fluorescence microscopy; assay type: ADME, cell-based; conditions: h460, 2 h
[37] = Drug uptake in human H460 cell endosome at 10 uM after 2 hrs by confocal laser scanning microscopy; assay type: ADME, cell-based; conditions: h460, 2 h
[38] = system: H460; experiment: Binding affinity to chromosomal DNA in human H460 cells at 10 uM after 2 hrs by confocal laser scanning microscopy; assay type: cell-based
[39] = Drug uptake in human H460 cell lysosome at 10 uM after 2 hrs by confocal laser scanning microscopy; assay type: ADME, cell-based; conditions: h460, 2 h
[40] = Drug uptake in human H460 cell nucleus at 10 uM after 2 hrs by confocal laser scanning microscopy; assay type: ADME, cell-based; conditions: h460, 2 h

N#Cc1cc2ccc(N3CCNCC3)cc2n2c1nc1ccccc12
Activity [1]: Dose-dependent effect
Activity [2]: 0%
Drug uptake [3]: Active
Activity [4]: Active
Activity [5]: 85%
Activity [6]: Active
IC50 [7]: 0.2 µM
Activity [8]: Active
Activity [9]: 40%
Activity [10]: 1%
Activity [11]: inactive
Activity [12]: 30%
inhibition at 50 µM [13]: 38%
Activity [14]: 15%
Activity [15]: 11%
Activity [16]: inactive
Activity [17]: 69%
Activity [18]: 2%
Activity [19]: 12%
Activity [20]: Active
Activity [21]: 59%
Activity [22]: Active
IC50 [23]: 0.06 µM
IC50 [24]: 0.2 µM
Activity [25]: 80%
Activity [26]: 30%
Drug uptake [27]: Active
Activity [28]: 19%
Activity [29]: Dose-dependent effect
ΔTm [30]: 17.3 °C
Activity [31]: 12%
Activity [32]: 1%
Activity [33]: 11%

CN(C)CCCNc1ccc2cc(C#N)c3nc4ccccc4n3c2c1
Activity [2]: 13%
Activity [4]: Active
Activity [5]: 65%
Activity [6]: Active
IC50 [7]: 0.4 µM
Activity [8]: Active
Activity [9]: 40%
Activity [10]: 47%
Activity [11]: inactive
Activity [12]: 17%
inhibition at 50 µM [13]: 72%
Activity [34]: Active
Activity [14]: 22%
Activity [15]: 4%
Activity [16]: inactive
Drug uptake [35]: Active
Activity [17]: 58%
Drug uptake [36]: Active
Activity [18]: 6%
Drug uptake [37]: Active
Activity [38]: Active
Activity [19]: 5%
Activity [21]: 60%
Activity [22]: Active
IC50 [23]: 0.23 µM
IC50 [24]: 0.3 µM
Activity [25]: 40%
Drug uptake [39]: Active
Activity [26]: 41%
Drug uptake [40]: Active
Activity [28]: 13%
Activity [29]: Dose-dependent effect
ΔTm [30]: 19.2 °C
Activity [31]: 8%
Activity [32]: 1%
Activity [33]: 23%
